Experimental data: the supplement of paper PMC11061612

Columns and labels:
Taselisib = compound: Cc1nc(-c2cn3c(n2)-c2ccc(-c4cnn(C(C)(C)C(N)=O)c4)cc2OCC3)n(C(C)C)n1 [Taselisib]; settings: max 10 µM
In short: (§1)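 Viability was measured with CellTiter-Glo 2.0 luminescence after 72 hours of dosing at a final DMSO of typically 0.2%, and scaled between blank-well and DMSO-well means. Beforehand, cancer cell lines sat 24 hours at 37°C and 5% CO2 in 1536-well plates in 7.5 μl DMEM/F12 or RPMI with 10% FBS. A non-linear mixed effects model fitted two-parameter logistic curves to the dose responses. The single-agent IC50 comes from these fits.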

SN-38 = compound: CCc1c2c(nc3ccc(O)cc13)-c1cc3c(c(=O)n1C2)COC(=O)[C@]3(O)CC [SN-38]; settings: max 0.3 µM
In short: as §1

Lapatinib = compound: CS(=O)(=O)CCNCc1ccc(-c2ccc3ncnc(Nc4ccc(OCc5cccc(F)c5)c(Cl)c4)c3c2)o1 [Lapatinib]; settings: max 10 µM
In short: as §1

AZD0156 = compound: CN(C)CCCOc1ccc(-c2ccc3ncc4c(c3c2)n(C2CCOCC2)c(=O)n4C)cn1 [AZD0156]; settings: max 3 µM
In short: as §1

Gemcitabine = compound: Nc1ccn([C@@H]2O[C@H](CO)[C@@H](O)C2(F)F)c(=O)n1 [Gemcitabine]; settings: max 0.3 µM
In short: as §1

Doxorubicin = compound: COc1cccc2c1C(=O)c1c(O)c3c(c(O)c1C2=O)C[C@@](O)(C(=O)CO)C[C@@H]3O[C@H]1C[C@H](N)[C@H](O)[C@H](C)O1 [Doxorubicin]; settings: max 1 µM
In short: as §1

Palbociclib = compound: CC(=O)c1c(C)c2cnc(Nc3ccc(N4CCNCC4)cn3)nc2n(C2CCCC2)c1=O [Palbociclib]; settings: max 10 µM
In short: as §1

Venetoclax = compound: CC1(C)CCC(CN2CCN(c3ccc(C(=O)NS(=O)(=O)c4ccc(NCC5CCOCC5)c([N+](=O)[O-])c4)c(Oc4cnc5[nH]ccc5c4)c3)CC2)=C(c2ccc(Cl)cc2)C1 [Venetoclax]; settings: max 1 µM
In short: as §1

SG3199 = compound: CC1=CN2[C@@H](C1)C=NC3=CC(=C(C=C3C2=O)OC)OCCCCCOC4=C(C=C5C(=C4)N=C[C@@H]6CC(=CN6C5=O)C)OC [SG3199]; settings: max 0.001 µM
In short: as §1

Paclitaxel = compound: CC(=O)O[C@H]1C(=O)[C@@]2(C)[C@H]([C@H](OC(=O)c3ccccc3)[C@]3(O)C[C@H](OC(=O)[C@H](O)[C@@H](NC(=O)c4ccccc4)c4ccccc4)C(C)=C1C3(C)C)[C@]1(OC(C)=O)CO[C@@H]1C[C@@H]2O [Paclitaxel]; settings: max 3 µM
In short: as §1

SRA737 = compound: N#Cc1cnc(Nc2cc(NC[C@H]3CNCCO3)c(C(F)(F)F)cn2)cn1 [SRA737]; settings: max 10 µM
In short: as §1

Savolitinib = compound: C[C@@H](c1ccc2nccn2c1)n1nnc2ncc(-c3cnn(C)c3)nc21 [Savolitinib]; settings: max 1 µM
In short: as §1

Prexasertib = compound: COc1cccc(OCCCN)c1-c1cc(Nc2cnc(C#N)cn2)n[nH]1 [Prexasertib]; settings: max 1 µM
In short: as §1

Dasatinib = compound: CC1=C(C(=CC=C1)Cl)NC(=O)C2=CN=C(S2)NC3=CC(=NC(=N3)C)N4CCN(CC4)CCO [Dasatinib]; settings: max 2 µM
In short: as §1

AZD1775 = compound: C=CCn1c(=O)c2cnc(Nc3ccc(N4CCN(C)CC4)cc3)nc2n1-c1cccc(C(C)(C)O)n1 [AZD1775]; settings: max 3 µM
In short: as §1

AZD6738 = compound: C[C@@H]1COCCN1C2=NC(=NC(=C2)C3(CC3)[S@](=N)(=O)C)C4=C5C=CNC5=NC=C4 [AZD6738]; settings: max 10 µM
In short: as §1

AZD1390 = compound: CC(C)n1c(=O)n(C)c2cnc3cc(F)c(-c4ccc(OCCCN5CCCCC5)nc4)cc3c21 [AZD1390]; settings: max 0.3 µM
In short: as §1

Gefitinib = compound: COc1cc2ncnc(Nc3ccc(F)c(Cl)c3)c2cc1OCCCN1CCOCC1 [Gefitinib]; settings: max 10 µM
In short: as §1

AZD7648 = compound: Cc1cc2ncnn2cc1Nc1ncc2c(n1)n(C1CCOCC1)c(=O)n2C [AZD7648]; settings: max 10 µM
In short: as §1

[1] = compound: O=C(Nc1ccc2[nH]nc(-c3ccncc3)c2c1)[C@@H]1CCN(CC(=O)N2CCN(c3ccc(-c4ncccn4)cc3)CC2)C1; settings: max 5 µM
In short: as §1

AZD5153 = compound: COc1nnc2ccc(N3CCC(c4ccc(OCCN5CCN(C)C(=O)[C@H]5C)cc4)CC3)nn12 [AZD5153]; settings: max 1 µM
In short: as §1

MK-2206 = compound: NC1(c2ccc(-c3nc4ccn5c(=O)[nH]nc5c4cc3-c3ccccc3)cc2)CCC1 [MK-2206]; settings: max 10 µM
In short: as §1

Alisertib = compound: COc1cc(Nc2ncc3c(n2)-c2ccc(Cl)cc2C(c2c(F)cccc2OC)=NC3)ccc1C(=O)O [Alisertib]; settings: max 10 µM
In short: as §1

Olaparib = compound: O=C(c1cc(Cc2n[nH]c(=O)c3ccccc23)ccc1F)N1CCN(C(=O)C2CC2)CC1 [Olaparib]; settings: max 10 µM
In short: as §1

AZD5991 = compound: Cc1c2c(nn1C)CSCc1cc(n(C)n1)CSc1cc(c3ccccc3c1)OCCCc1c(C(=O)O)n(C)c3c-2c(Cl)ccc13 [AZD5991]; settings: max 1 µM
In short: as §1

AZD4320 = compound: CN(CC[C@H](CSC1=CC=CC=C1)NC2=C(C=C(C=C2)S(=O)(=O)NC(=O)C3=CC=C(C=C3)N4CCC(CC4)[C@H](C5=CC=CC=C5C6=CC=C(C=C6)Cl)O)S(=O)(=O)C(F)(F)F)CCO [AZD4320]; settings: max 1 µM
In short: as §1

AZD2811 = compound: CCN(CCO)CCCOc1ccc2c(Nc3cc(CC(=O)Nc4cccc(F)c4)[nH]n3)ncnc2c1 [AZD2811]; settings: max 1 µM
In short: as §1

Carboplatin = compound: C1CC(C1)(C(=O)[O-])C(=O)[O-].N.N.[Pt+2] [Carboplatin]; settings: max 10 µM
In short: as §1

Crizotinib = compound: C[C@@H](Oc1cc(-c2cnn(C3CCNCC3)c2)cnc1N)c1c(Cl)ccc(F)c1Cl [Crizotinib]; settings: max 10 µM
In short: as §1

Selumetinib = compound: Cn1cnc2c(F)c(Nc3ccc(Br)cc3Cl)c(C(=O)NOCCO)cc21 [Selumetinib]; settings: max 10 µM
In short: as §1

Trametinib = compound: CC(=O)Nc1cccc(-n2c(=O)n(C3CC3)c(=O)c3c(Nc4ccc(I)cc4F)n(C)c(=O)c(C)c32)c1 [Trametinib]; settings: max 1 µM
In short: as §1

AZD8186 = compound: C[C@@H](Nc1cc(F)cc(F)c1)c1cc(C(=O)N(C)C)cc2c(=O)cc(N3CCOCC3)oc12 [AZD8186]; settings: max 10 µM
In short: as §1

5-Fluorouracil = compound: O=c1[nH]cc(F)c(=O)[nH]1 [5-Fluorouracil]; settings: max 20 µM
In short: as §1

Etoposide = compound: COc1cc([C@@H]2c3cc4c(cc3[C@@H](O[C@@H]3O[C@@H]5CO[C@@H](C)O[C@H]5[C@H](O)[C@H]3O)[C@H]3COC(=O)[C@H]23)OCO4)cc(OC)c1O [Etoposide]; settings: max 10 µM
In short: as §1

AZD5363 = compound: C1CN(CCC1(C(=O)N[C@@H](CCO)C2=CC=C(C=C2)Cl)N)C3=NC=NC4=C3C=CN4 [AZD5363]; settings: max 10 µM
In short: as §1

Row | Cell Line | IC50, cell viability 72 h (Taselisib) | IC50, cell viability 72 h (SN-38) | IC50, cell viability 72 h (Lapatinib) | IC50, cell viability 72 h (AZD0156) | IC50, cell viability 72 h (Gemcitabine) | IC50, cell viability 72 h (Doxorubicin) | IC50, cell viability 72 h (Palbociclib) | IC50, cell viability 72 h (Venetoclax) | IC50, cell viability 72 h (SG3199) | IC50, cell viability 72 h (Paclitaxel) | IC50, cell viability 72 h (SRA737) | IC50, cell viability 72 h (Savolitinib) | IC50, cell viability 72 h (Prexasertib) | IC50, cell viability 72 h (Dasatinib) | IC50, cell viability 72 h (AZD1775) | IC50, cell viability 72 h (AZD6738) | IC50, cell viability 72 h (AZD1390) | IC50, cell viability 72 h (Gefitinib) | IC50, cell viability 72 h (AZD7648) | IC50, cell viability 72 h [1] | IC50, cell viability 72 h (AZD5153) | IC50, cell viability 72 h (MK-2206) | IC50, cell viability 72 h (Alisertib) | IC50, cell viability 72 h (Olaparib) | IC50, cell viability 72 h (AZD5991) | IC50, cell viability 72 h (AZD4320) | IC50, cell viability 72 h (AZD2811) | IC50, cell viability 72 h (Carboplatin) | IC50, cell viability 72 h (Crizotinib) | IC50, cell viability 72 h (Selumetinib) | IC50, cell viability 72 h (Trametinib) | IC50, cell viability 72 h (AZD8186) | IC50, cell viability 72 h (5-Fluorouracil) | IC50, cell viability 72 h (Etoposide) | IC50, cell viability 72 h (AZD5363)
1 | RMG-I (Ovarian Carcinoma) | 8320 nM | > 300 nM | > 10000 nM | > 3000 nM | > 300 nM | > 1000 nM | > 10000 nM | > 1000 nM | > 1 nM | > 3000 nM | > 10000 nM | > 1000 nM | 301 nM | > 2000 nM | > 3000 nM | > 10000 nM | > 300 nM | > 10000 nM | > 10000 nM | > 5000 nM | 647 nM | > 10000 nM | > 10000 nM | > 10000 nM | > 1000 nM | 593 nM | > 1000 nM | > 10000 nM | > 10000 nM | > 10000 nM | > 1000 nM | > 10000 nM | > 20000 nM | > 10000 nM | > 10000 nM
2 | SK-MM-2 (Plasma Cell Myeloma) | > 10000 nM | 76.4 nM | > 10000 nM | > 3000 nM | > 300 nM | > 1000 nM | > 10000 nM | 2.5 nM | > 1 nM | > 3000 nM | > 10000 nM | > 1000 nM | 119 nM | > 2000 nM | > 3000 nM | > 10000 nM | > 300 nM | > 10000 nM | > 10000 nM | > 5000 nM | 32.5 nM | > 10000 nM | 1810 nM | > 10000 nM | > 1000 nM | 3.02 nM | > 1000 nM | > 10000 nM | > 10000 nM | > 10000 nM | > 1000 nM | > 10000 nM | > 20000 nM | > 10000 nM | > 10000 nM
